Key:
LOX4 = target: T1, LOX4 (Arabidopsis thaliana, UniProt Q9FNX8); test: Intrinsic fluorescence of LOX4; format: binding; set-up: made in house; host or cells: E. coli Nico21(DE3), pET15b; conditions: 156 µM chemical; λExc = 280 nm; control 98.1 ± 3.9
T1 sequence (Q9FNX8 71-926): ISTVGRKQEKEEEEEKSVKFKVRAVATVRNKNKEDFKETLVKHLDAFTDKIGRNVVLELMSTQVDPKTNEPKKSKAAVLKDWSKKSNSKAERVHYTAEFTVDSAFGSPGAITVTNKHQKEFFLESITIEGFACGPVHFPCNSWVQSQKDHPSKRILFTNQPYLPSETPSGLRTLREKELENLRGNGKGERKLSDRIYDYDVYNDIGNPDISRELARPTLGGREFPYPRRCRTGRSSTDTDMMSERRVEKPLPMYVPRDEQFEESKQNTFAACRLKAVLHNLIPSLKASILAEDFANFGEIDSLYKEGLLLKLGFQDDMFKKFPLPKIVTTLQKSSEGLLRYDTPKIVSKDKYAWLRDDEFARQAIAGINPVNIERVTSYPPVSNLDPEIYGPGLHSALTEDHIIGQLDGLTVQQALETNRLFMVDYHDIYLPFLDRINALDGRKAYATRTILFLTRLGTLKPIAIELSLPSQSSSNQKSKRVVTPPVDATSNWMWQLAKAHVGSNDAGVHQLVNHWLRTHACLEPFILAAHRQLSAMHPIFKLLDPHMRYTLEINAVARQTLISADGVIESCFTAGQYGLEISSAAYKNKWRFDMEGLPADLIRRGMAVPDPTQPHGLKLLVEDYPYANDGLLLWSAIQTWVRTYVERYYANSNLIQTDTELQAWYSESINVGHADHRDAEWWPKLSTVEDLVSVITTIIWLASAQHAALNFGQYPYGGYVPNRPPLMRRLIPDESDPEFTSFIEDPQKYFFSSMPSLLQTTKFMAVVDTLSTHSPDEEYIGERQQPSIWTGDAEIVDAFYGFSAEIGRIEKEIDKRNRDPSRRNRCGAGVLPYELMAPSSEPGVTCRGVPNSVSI
Experimental: (§1) Figure 5 Analysis of the interaction of 12-OPDA and MJ with LOX4. […] LOX4 (0.22 µg/µL) was incubated with compounds at indicated concentrations for 10 min at 30 °C, and residual LOX activity was measured spectrophotometrically by the injection of 3 µL incubation mixture into 123 µL LeA (4.8 µM in 50 mM Tris-HCl, pH 7.2). […] (B) Intrinsic fluorescence of LOX4 incubated with 12-OPDA, MJ and solvent (control). Here, 120 µL LOX4 (0.2 µg/µL) was mixed with 15 µL chemical (1.4 mM in 50 mM K-Pi, pH 8.0) or solvent (control) and analyzed for intrinsic fluorescence emission after excitation at λExc = 280 nm. Mean graphs are shown (n = 4).

LOX2 = target: T2, LOX2 (Arabidopsis thaliana, UniProt P38418); test: Intrinsic fluorescence of LOX2; format: binding; set-up: made in house; host or cells: E. coli Nico21(DE3), pET15b; conditions: as Figure 5B; for Emission maximum: control 336.5±0.6, in nm (unit assumed); for Relative fluorescence intensity at emission maximum: λExc = 280 nm, control 125.5±2.0
T2 sequence (P38418 71-896): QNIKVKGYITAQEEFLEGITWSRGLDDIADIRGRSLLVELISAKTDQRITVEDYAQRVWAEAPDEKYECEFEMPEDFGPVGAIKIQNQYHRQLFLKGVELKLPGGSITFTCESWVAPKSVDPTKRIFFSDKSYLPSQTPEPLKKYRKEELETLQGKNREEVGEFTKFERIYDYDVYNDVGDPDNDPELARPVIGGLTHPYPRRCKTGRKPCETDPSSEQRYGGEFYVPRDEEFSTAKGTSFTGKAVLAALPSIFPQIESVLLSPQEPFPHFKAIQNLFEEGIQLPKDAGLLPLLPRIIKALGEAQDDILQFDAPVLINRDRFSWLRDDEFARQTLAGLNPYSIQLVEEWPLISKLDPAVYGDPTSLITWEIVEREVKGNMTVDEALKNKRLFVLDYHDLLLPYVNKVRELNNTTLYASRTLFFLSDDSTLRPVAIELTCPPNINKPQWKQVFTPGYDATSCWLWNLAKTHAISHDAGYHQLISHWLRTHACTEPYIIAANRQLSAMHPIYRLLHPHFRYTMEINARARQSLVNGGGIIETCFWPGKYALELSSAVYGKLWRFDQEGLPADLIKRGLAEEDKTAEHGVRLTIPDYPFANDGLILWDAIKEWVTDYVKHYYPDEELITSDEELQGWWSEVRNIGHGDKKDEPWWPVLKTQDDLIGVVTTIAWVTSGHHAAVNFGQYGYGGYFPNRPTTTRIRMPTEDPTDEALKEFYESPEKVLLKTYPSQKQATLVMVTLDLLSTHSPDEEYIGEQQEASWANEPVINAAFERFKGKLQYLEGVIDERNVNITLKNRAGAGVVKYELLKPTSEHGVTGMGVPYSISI
Experimental: as §1
Int. J. Mol. Sci. 2021, 22, x FOR PEER REVIEW 11 of 17
Figure S7. Interaction and activity studies of LOX2, LOX3 and LOX6. (A) LOX2, LOX3 and LOX6 activities in presence of increasing amounts of MJ and 12-OPDA. Analysis was performed as described for IC50 determination of LOX4 (see Figure 5A). 100% activity […]
(B) Intrinsic fluorescence of LOX2 and LOX3 incubated with 12-OPDA, MJ and solvent control. Analysis was performed as in Figure 5B. […]

Compound | Relative fluorescence emission at 333 nm (LOX4) | Emission maximum (LOX2) | Relative fluorescence intensity at emission maximum (LOX2)
CCC=CCC1C(=O)C=CC1CCCCCCCC(=O)O (stereo not drawn) [12-OPDA, cis-(+)-12-oxophytodienoic acid] | 86.2 ± 3.9 | 337.2±0.3 | 117.5±2.0
CC/C=C\CC1C(=O)CCC1CC(=O)OC (stereo not drawn) [MJ, methyl jasmonate] | 98.0 ± 2.4 | 337.3±0.6 | 119.7±2.7
